We go through five molecules from patent EP4454666A1, “IN VIVO IMAGING OF AN ALS BIOMARKER AND MEANS THEREFOR” (Société de Commercialisation des Produits de la Recherche …, priority 2023, dated 2024).

One experiment concerns mSOD1 aggregates. In words: PET imaging of spinal cord mSOD1 aggregates (spots). It is filed as in vivo, mice.
Experiment [1] has as its target T1, denatured human SOD1 (human, UniProt P00441 2-154).
T1 construct: also called misfolded SOD1; mSOD1
In words: direct ELISA on denatured human SOD1 (Fig. 6A). On the technique in general: An ELISA detects its analyte on a solid surface through an enzyme-linked reagent.

Experiment [2] has as its target T1, denatured human SOD1. The experiment in a line: direct ELISA on denatured human SOD1 (mSOD1).
In experiment [3] the target is T1, denatured human SOD1. In words: ELISA on misfolded SOD1 (refers to Fig. 6).

T1 sequence (P00441 2-154 limits assumed): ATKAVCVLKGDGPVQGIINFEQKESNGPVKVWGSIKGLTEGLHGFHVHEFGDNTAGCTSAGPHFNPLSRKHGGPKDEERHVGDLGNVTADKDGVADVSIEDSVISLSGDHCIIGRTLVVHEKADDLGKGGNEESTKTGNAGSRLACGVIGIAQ
Description for mSOD1 aggregates: Under isoflurane anesthesia. […] Imaging days post administration of the radiotracer were optimized as the first results were collected the last groups being imaged only at days 7 and 10. Once the radiotracer administrated, the mouse was placed in its cage to recuperate from anesthesia and returned to the housing facility.
PET imaging was performed on days 7 and 10 following the administration of the radiotracer. Imaging was done on a LabPET-2 PET scanner (https://imagingrt.com/. Bore size: 72 mm. Axial FOV: 50 mm. Transaxial FOV: 60 mm. Spatial resolution: 0.74 mm (Isotropic at 5 mm from center). Detection efficiency (250-650 keV): 3.3% dedicated to small animal imaging. Preparation and PET imaging was done under isoflurane anesthesia delivered through a nose cone (Induction 2-3% isoflurane then 1 - 2.5%. 1-1.5 L of oxygen/min) the level of anesthesia being modulated if required during PET imaging. An ophthalmic gel was applied to the eyes to prevent eye dryness. The mouse was positioned within the field of view of the PET imager and a 30 min static acquisition was performed then the bed of the imager was moved within the CT module of the LabPET8 scanner, and a 2 min CT acquisition was performed. During PET imaging, the mouse was kept warm using pulsed hot air maintained at 32 °C, the environment temperature and respiration rate being monitored throughout the imaging procedure (PCSAM. Model 1025T Monitoring & Gating System, SA Instruments Inc.). Once the imaging procedure was completed, the mouse was placed in its cage to recuperate from anesthesia and returned to the housing facility.
PET data were acquired in list mode and reconstructed on a 200 x 200 x 168 grid with 0.3 x 0.3 x 0.3 mm^3 voxel size using 16 iterations and 8 subset of the 3D Ordered Subset Expectation Maximization (OSEM) algorithm. All PET images were corrected for the physical radionuclide decay of ^89Zr and random coincidences. […]
Once reconstructed the PET images were visually inspected to identify potential mSOD1 aggregates, which appear as discrete radiotracer spots within the spinal cord. […] The criteria for validity were that the spot was well defined within the spinal cord and not contaminated by radioactivity spilled in form the presence of the radiotracer in the anterior portion of the vertebra. […]
Once located region of interest (ROI) was then traced around these spots and the measure radiotracer content corrected for the partial volume effect (PVE) using the recovery coefficient and for spill-in from the presence of free ^89Zr in the anterior part of the vertebra (Fig. 4). […] The radioactivity content of m-SOD1 aggregated was expressed in terms of %ID/g.

For the molecule “Degly-^89Zr-DFO-AP-101: ^89Zr-DFO-AP-101 in which the AP-101 antibody is deglycosylated”, the “number of detected spots including false positive spots” value came to 6 spots with mSOD1 aggregates (day 7 post administration) and 12 spots in the experiment with mSOD1 aggregates (day 10 post administration).
“^89Zr-DFO-AP-101: AP-101 antibody, SCN-Bn-DFO as bifunctional chelator and ^89Zr as radionuclide; PET radiotracer”: the entries for the “number of detected spots including false positive spots” value with mSOD1 aggregates (day 7 post administration) and in the experiment on mSOD1 aggregates (day 10 post administration) were 6 spots and 18 spots, respectively.

B1: AP-101 (antibody, V domains shown)
VH: EVQLVESGAEVKKPGASVTLSCKASGYTFTAYYIHWVRQAREQGLEWMGVINPSTGTTFYAQNFPDRVSVTRDTSTSTVFMELHNLKSEDTAVYYCARAISEHGSGSYSPYYWGQGTLVTVSS
VL: SYVLTQPPSVSVSLGQMAAITCSGEALPKKYGYWYQQKPGQVPVLLIYRDVERPSGVPDRFSGSSSGTMVTLTISGVQAEDEADYYCLSADSSGTWVFGGGTKLTVL
In the experiment with denatured human SOD1 [1], B1 had an EC50 of 0.2 nM.

B2: Degly-^natZr-DFO-AP-101 (antibody, human IgG1, V domains shown)
VH: B1 VH
VL: B1 VL
modifications: DFO chelator conjugated randomly on lysine residues; Fc N-glycans removed with EndoS2 (GlycINATOR); DFO chelator on lysine residues, average 0.6 DFO per antibody; natZr complexed
Take B2: in the experiment with denatured human SOD1 [2], the response was half-maximal at 2.4 nM (EC50). This lies in the single-digit nanomolar range.

B3: ^natZr-DFO-AP-101 (antibody, human IgG1, V domains shown)
VH: B1 VH
VL: B1 VL
modifications: p-SCN-Bn desferoxamine (DFO) chelator conjugated randomly on lysine residues; p-SCN-Bn desferoxamine (DFO) chelator conjugated randomly on lysine residues, DFO:AP-101 ratio 1.1:1.0; natZr complexed
notes: also called DFO-α-miSOD1
In the case of B3, the EC50 in the experiment with denatured human SOD1 [2] was 0.3 nM; with denatured human SOD1 [3], 0.5 nM.

What is called EC50 is the midpoint of the concentration-response curve. Low readings indicate higher potency in that assay, high ones lower potency in that assay.
